Patent US9920136B2, “Posaconazole immunoassays” (ARK Diagnostics, Inc., priority 2013, dated 2018)

What was measured:
[1] = test system: Ab15421 (rabbit polyclonal antibody to posaconazole); experiment: Homogeneous enzyme immunoassay calibration curve (POS-IV G6PDH conjugate and Ab15421) in pooled human serum; type: binding; settings: HITACHI 917, 340 nm
Experimental: Ab15421 was used to measure enzyme activity, generate a calibration curve, and evaluate assay precision, accuracy and specificity. Ab15421 was added into the antibody diluent to prepare the antibody reagent. The antibody reagent included Ab15421 as prepared above, buffer, stabilizers, preservatives, and the substrates for the enzyme conjugate nicotinamide adenine dinucleotide (NAD^+) and glucose-6-phosphate. Enzyme conjugate POS-IV G6PDH was added into the conjugate reagent to prepare the enzyme conjugate reagent. The enzyme conjugate reagent included the conjugate, buffer, stabilizers and preservatives. Enzyme conjugate POS-IV G6PDH was used with Ab15421 in examples below.
Ab15421 was added into the antibody diluent to prepare the antibody reagent. The antibody reagent included Ab15421 as prepared above, buffer, stabilizers, preservatives, and the substrates for the enzyme conjugate NAD^+ and glucose 6 phosphate. Enzyme conjugate POS-IV G6PDH or a label protein including alkaline phosphatase, β-galactosidase and horse radish peroxidase was added into the conjugate reagent to prepare the enzyme conjugate reagent. The enzyme conjugate reagent included the conjugate, buffer, stabilizers and preservatives.
The posaconazole antibodies and enzyme conjugates were used in a homogeneous assay format to detect posaconazole samples. Posaconazole containing sample was incubated with antibody reagent followed by the addition of the enzyme conjugate reagent. The enzyme conjugate activity decreased upon binding to Ab15421. The enzyme conjugate, which was not bound to Ab15421, catalyzed the oxidation of glucose 6-phosphate (G6P). The oxidation of G6P was coupled with the reduction of NAD^+ to NADH, which was measured at 340 nm. The change in the absorbance at 340 nm was measured spectrophotometrically. The posaconazole concentration in a sample was measured in terms of G6PDH activity. The increase in the rate at 340 nm was due to the formation of NADH and was proportional to the enzyme conjugate activity. An assay curve was generated using posaconazole added into serum negative for posaconazole. The assay rate increased with increasing the concentration of free drug in the sample.
Posaconazole was dissolved in methanol to give a stock solution of 1000 μg/mL. Pooled human serum was aliquoted in 10 mL portions. Posaconazole stock solution was added to the aliquots of human serum in preparing a series of known concentrations of posaconazole calibrators ranging from 0 to 16 μg/mL. The assay was performed using Enzyme Conjugate Reagent NB051:154 containing conjugate POS-IV G6PDH and Antibody Reagent NB051:154 containing Ab15421. Calibration curves were generated on the HITACHI 917 automated clinical chemistry analyzer, as described in Example 7 by measuring each level in duplicate.

[2] = cited from earlier work
[3] = test system: Ab15421 (rabbit polyclonal antibody to posaconazole); experiment: Specificity of the immunoassay: cross-reactivity to antifungal triazoles; type: binding; settings: Ab15421 with POS-IV G6PDH; for Cross-reaction of Ab15421 with other azole antifungals (in words): human serum samples, 10 μg/mL; for Cross-reactivity (%): triazole 20 μg/ml added to Posaconazole 10 μg/ml vs Posaconazole 10 μg/ml control, human serum
Source text: Antibodies obtained using any of the disclosed techniques are screened or purified not only for their ability to react with posaconazole, but for a low cross-reactivity with potential interfering substances. “Cross-reactivity” may be determined in a quantitative immunoassay by establishing a standard curve using known dilutions of the target analyte, posaconazole. The standard curve is then used to calculate the apparent concentration of the interfering substance present in various known amounts in samples assayed under similar condition. The cross-reactivity can be calculated as the apparent concentration divided by the actual concentration multiplied by 100. A certain immunoassay for determining cross-reactivity is a homogeneous enzyme immunoassay using a wild type G6PDH as described in U.S. Pat. No. 3,817,837 or mutant G6PDH engineered to contain a cysteine per subunit as described in U.S. Pat. Nos. 6,033,890, 6,090,567 and 6,455,288. Furthermore, the cross-reactivity can be determined in the same type of immunoassay in which the antibody will ultimately be used.
To human serum negative for antifungal azoles was added posaconazole dissolved in methanol to achieve a concentration of 10 μg/mL of posaconazole. […]
The assay was calibrated as described in Example 8 using Enzyme Conjugate Reagent NB051:154 containing conjugate POS-IV G6PDH and Antibody Reagent NB051:154 containing Ab15421. The testing was performed on the HITACHI 917. The samples were quantified from the calibration curve generated.

| SMILES | Reaction Rate (mA/min) Average of Duplicates ([1]; Posaconazole Conc. 1.0 μg/mL in pooled human serum) [mA/min] | Reaction Rate (mA/min) Average of Duplicates ([1]; Posaconazole Conc. 2.0 μg/mL in pooled human serum) [mA/min] | Reaction Rate (mA/min) Average of Duplicates ([1]; Posaconazole Conc. 4.0 μg/mL in pooled human serum) [mA/min] | Reaction Rate (mA/min) Average of Duplicates ([1]; Posaconazole Conc. 8.0 μg/mL in pooled human serum) [mA/min] | Reaction Rate (mA/min) Average of Duplicates ([1]; Posaconazole Conc. 16.0 μg/mL in pooled human serum) [mA/min] | Increase of bioavailability on coadministration with food ([2]; coadministration with food) | Bioavailability (in words) ([2]; oral, saturable absorption) | Cross-reaction of Ab15421 with other azole antifungals (in words) [3] | Cross-reactivity (%) [3] [%] |
| --- | --- | --- | --- | --- | --- | --- | --- | --- | --- |
| CC[C@@H]([C@H](C)O)n1ncn(-c2ccc(N3CCN(c4ccc(OC[C@@H]5CO[C@@](Cn6cncn6)(c6ccc(F)cc6F)C5)cc4)CC3)cc2)c1=O [Posaconazole, 4-[4-[4-[4-[[(3R,5R)-5-(2,4-difluorophenyl)tetrahydro-5-(1H 1,2,4-triazol-1-ylmethyl)-3-furanyl]methoxy]phenyl]-1-piperazinyl]phenyl]-2-[(1S,2S)-1-ethyl-2-hydroxypropyl]-2,4-dihydro-3H-1,2,4-triazol-3-one] | 165.7 | 235.5 | 304.7 | 371.7 | 409.4 | up to 4 fold | low and highly variable bioavailability |  |  |
| C[C@@H](c1ncncc1F)[C@](O)(Cn1cncn1)c1ccc(F)cc1F [Voriconazole] |  |  |  |  |  |  |  | did not crossreact | <0.01 |
| OC(Cn1cncn1)(Cn1cncn1)c1ccc(F)cc1F [Fluconazole] |  |  |  |  |  |  |  | did not crossreact | <0.01 |
